Measured values reported in PubChem BioAssay AID248 (DTP/NCI, 2004).
Several values for one entry are separate records, joined by “and”; a condition that tells them apart may be missing. Equal values may be shown once. Toxic doses and inconclusive results are not listed. Cut-off read from the data, not from the text of the source: active = T/C of 150% or more; inactive = T/C below 125%.

Test system: L1210 leukemia ip in BDF1 mice, survival T/C
Experiment: NCI In Vivo Anticancer Drug Screen. Data for tumor model L1210 Leukemia (intraperitoneal) in B6D2F1 (BDF1) mice
Conditions: endpoint: mean survival time, higher = longer survival
How it was run: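 Survival endpoint. Drug-treated group vs vehicle group, expressed as T divided by C. Tumor passaged by transplantation.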

[1] = dose: 100.0 mg/kg/injection, schedule: Q04DX003 (ip), vehicle: saline
[2] = dose: 200.0 mg/kg/injection, schedule: Q04DX003 (ip), vehicle: saline
[3] = dose: 400.0 mg/kg/injection, schedule: Q04DX003 (ip), vehicle: saline
[4] = dose: 100.0 mg/kg/injection, schedule: Q01DX009 (ip), vehicle: Klucel (hydroxypropylcellulose) (HPC)
[5] = dose: 200.0 mg/kg/injection, schedule: Q01DX009 (ip), vehicle: Klucel (hydroxypropylcellulose) (HPC)
[6] = dose: 400.0 mg/kg/injection, schedule: Q01DX009 (ip), vehicle: Klucel (hydroxypropylcellulose) (HPC)
[7] = dose: 100.0 mg/kg/injection, schedule: Q04DX003 (ip), vehicle: saline with Tween-80
[8] = dose: 400.0 mg/kg/injection, schedule: Q04DX003 (ip), vehicle: saline with Tween-80
[9] = dose: 100.0 mg/kg/injection, schedule: Q01DX001 (ip), vehicle: Klucel (hydroxypropylcellulose) (HPC)
[10] = dose: 200.0 mg/kg/injection, schedule: Q01DX001 (ip), vehicle: Klucel (hydroxypropylcellulose) (HPC)
[11] = dose: 400.0 mg/kg/injection, schedule: Q01DX001 (ip), vehicle: Klucel (hydroxypropylcellulose) (HPC)
[12] = dose: 25.0 mg/kg/injection, schedule: Q01DX009 (ip), vehicle: saline
[13] = dose: 50.0 mg/kg/injection, schedule: Q01DX009 (ip), vehicle: saline
[14] = dose: 50.0 mg/kg/injection, schedule: Q04DX003 (ip), vehicle: saline
[15] = dose: 100.0 mg/kg/injection, schedule: Q04DX002 (ip), vehicle: Klucel (hydroxypropylcellulose) (HPC)
[16] = dose: 200.0 mg/kg/injection, schedule: Q04DX002 (ip), vehicle: Klucel (hydroxypropylcellulose) (HPC)
[17] = dose: 400.0 mg/kg/injection, schedule: Q04DX002 (ip), vehicle: Klucel (hydroxypropylcellulose) (HPC)
[18] = dose: 50.0 mg/kg/injection, schedule: Q01DX001 (ip), vehicle: saline
[19] = dose: 100.0 mg/kg/injection, schedule: Q01DX001 (ip), vehicle: saline
[20] = dose: 200.0 mg/kg/injection, schedule: Q01DX001 (ip), vehicle: saline
[21] = dose: 100.0 mg/kg/injection, schedule: Q04DX003 (ip), vehicle: Klucel (hydroxypropylcellulose) (HPC)
[22] = dose: 200.0 mg/kg/injection, schedule: Q04DX003 (ip), vehicle: Klucel (hydroxypropylcellulose) (HPC)
[23] = dose: 400.0 mg/kg/injection, schedule: Q04DX003 (ip), vehicle: Klucel (hydroxypropylcellulose) (HPC)
[24] = dose: 100.0 mg/kg/injection, schedule: Q01DX009 (ip), vehicle: saline

Measured: T/C

CC(=O)Nn1cnc2c(SCc3ccccc3)ncnc21
inactive: dose: 100.0 mg/kg/injection, schedule: Q01DX001 (ip), vehicle: other 96 % of control | dose: 177.0 mg/kg/injection, schedule: Q01DX001 (ip), vehicle: other 105 % of control | dose: 200.0 mg/kg/injection, schedule: Q01DX001 (ip), vehicle: other 100 % of control | dose: 266.0 mg/kg/injection, schedule: Q01DX001 (ip), vehicle: other 115 % of control

CCOC(=O)CSCc1cc(=O)[nH]c(=O)[nH]1
inactive: [1] 96 % of control | [2] 98 % of control | [3] 102 % of control

O=C(O)CCCCCNC(=O)c1ccccc1
inactive: [4] 92 % of control | [1] 114 % of control | [5] 93 % of control | [2] 100 % of control | [6] 102 % of control | [3] 103 % of control

CCCCN(CCCC)CP(=O)(CN(CCCC)CCCC)CN(CCCC)CCCC
inactive: [7] 93 % of control | dose: 200.0 mg/kg/injection, schedule: Q04DX003 (ip), vehicle: saline with Tween-80 96 % of control | [8] 111 % of control

COC(=O)c1ccccc1Nc1ccccc1[N+](=O)[O-]
inactive: dose: 75.0 mg/kg/injection, schedule: Q04DX003 (ip), vehicle: Klucel (hydroxypropylcellulose) (HPC) 101 % of control | [9] 100 % of control | dose: 150.0 mg/kg/injection, schedule: Q04DX003 (ip), vehicle: Klucel (hydroxypropylcellulose) (HPC) 87 % of control | [10] 95 % of control | dose: 300.0 mg/kg/injection, schedule: Q04DX003 (ip), vehicle: Klucel (hydroxypropylcellulose) (HPC) 90 % of control | [11] 113 % of control

NCC1CCNCC1
inactive: dose: 25.0 mg/kg/injection, schedule: Q04DX002 (ip), vehicle: saline 103 % of control | dose: 50.0 mg/kg/injection, schedule: Q04DX002 (ip), vehicle: saline 97 % of control and 100 % of control | dose: 100.0 mg/kg/injection, schedule: Q04DX002 (ip), vehicle: saline 103 % of control and 106 % of control | dose: 200.0 mg/kg/injection, schedule: Q04DX002 (ip), vehicle: saline 102 % of control and 90 % of control | dose: 400.0 mg/kg/injection, schedule: Q04DX002 (ip), vehicle: saline 97 % of control

NCC1CCCCC1
inactive: dose: 6.25 mg/kg/injection, schedule: Q01DX009 (ip), vehicle: saline 107 % of control | dose: 12.0 mg/kg/injection, schedule: Q04DX003 (ip), vehicle: saline 98 % of control | dose: 12.5 mg/kg/injection, schedule: Q01DX009 (ip), vehicle: saline 105 % of control | [12] 100 % of control | dose: 25.0 mg/kg/injection, schedule: Q04DX003 (ip), vehicle: saline 110 % of control | [13] 88 % of control | [14] 104 % of control

CC(C)C(C)/C=C/C(C)C1CCC2C3CC=C4CC(O)CCC4(C)C3CCC12C (stereo unspecified)
inactive: [9] 97 % of control | [10] 101 % of control | [11] 90 % of control

Cc1ccc([N+](=O)[O-])cc1NC(=O)Cc1ccccc1
inactive: [15] 101 % of control | [16] 93 % of control | [17] 93 % of control

Fc1cccc(N2CCOCC2)c1
inactive: [18] 101 % of control | [19] 93 % of control | [20] 101 % of control

ClC(Cl)c1nc2ccccc2[nH]1
inactive: dose: 25.0 mg/kg/injection, schedule: Q01DX001 (ip), vehicle: Klucel (hydroxypropylcellulose) (HPC) 94 % of control | [14] 97 % of control

CC1(C)N=C(N)N=C(N)N1c1ccc(OCC(=O)Nc2ccccc2)c(Cl)c1
inactive: [4] 102 % of control | [21] 97 % of control | [5] 94 % of control | [22] 90 % of control | [6] 93 % of control | [23] 92 % of control

Cc1ccc(Nc2n[nH]c(=S)s2)c(C)c1
inactive: dose: 100.0 mg/kg/injection, schedule: Q04DX002 (ip), vehicle: gum acacia 96 % of control | dose: 200.0 mg/kg/injection, schedule: Q04DX002 (ip), vehicle: gum acacia 96 % of control | dose: 400.0 mg/kg/injection, schedule: Q04DX002 (ip), vehicle: gum acacia 111 % of control

CSc1ccc(OC(=O)NC2CCCCC2)cc1
inactive: [4] 98 % of control | [21] 98 % of control | [5] 101 % of control | [22] 101 % of control | [6] 116 % of control | [23] 101 % of control

CCOC(=O)c1[nH]c(C)c(C(C)=O)c1C
inactive: dose: 100.0 mg/kg/injection, schedule: Q01DX009 (ip), vehicle: saline with Tween-80 92 % of control | dose: 200.0 mg/kg/injection, schedule: Q01DX009 (ip), vehicle: saline with Tween-80 97 % of control | dose: 400.0 mg/kg/injection, schedule: Q01DX009 (ip), vehicle: saline with Tween-80 100 % of control

CC(NC(=O)OCc1ccccc1)C(=O)NC(Cc1ccccc1)C(=O)OCc1ccccc1 (stereo unspecified)
inactive: [7] 95 % of control | [8] 91 % of control

NC(=S)N/N=C\c1cccs1
inactive: [15] 96 % of control | [16] 107 % of control | [17] 102 % of control

O=C1/C(=C/c2ccccc2)Cc2cccc(O)c21
inactive: dose: 100.0 mg/kg/injection, schedule: Q01DX009 (ip), vehicle: saline sonified 100 % of control | dose: 200.0 mg/kg/injection, schedule: Q01DX009 (ip), vehicle: saline sonified 107 % of control | dose: 400.0 mg/kg/injection, schedule: Q01DX009 (ip), vehicle: saline sonified 102 % of control

CCOC(=O)C(C)(C)CCC(C)(C)C(=O)OCC
inactive: [15] 97 % of control | [16] 103 % of control | [17] 90 % of control

CS(=O)c1nsc(S(C)=O)c1C#N (stereo unspecified)
inactive: dose: 12.5 mg/kg/injection, schedule: Q04DX002 (ip), vehicle: Klucel (hydroxypropylcellulose) (HPC) 122 % of control

O=C1Nc2ccccc2CCc2ccccc21
inactive: [24] 87 % of control | [1] 94 % of control | dose: 200.0 mg/kg/injection, schedule: Q01DX009 (ip), vehicle: saline 100 % of control | [2] 100 % of control | dose: 400.0 mg/kg/injection, schedule: Q01DX009 (ip), vehicle: saline 89 % of control | [3] 96 % of control

Cc1cc(C)c2c(=O)[nH]c(=S)[nH]c2n1
inactive: [18] 102 % of control | [19] 108 % of control | [4] 95 % of control | [20] 102 % of control | [5] 91 % of control | dose: 400.0 mg/kg/injection, schedule: Q01DX001 (ip), vehicle: saline 98 % of control | [6] 98 % of control

O=C1C[C@@H](c2ccc(O)cc2)[C@@]2(O1)C(=O)O[C@H]([C@@H](O)CO)[C@@H]2O
inactive: dose: 75.0 mg/kg/injection, schedule: Q01DX001 (ip), vehicle: saline 98 % of control | dose: 75.0 mg/kg/injection, schedule: Q01DX009 (ip), vehicle: saline 96 % of control | dose: 75.0 mg/kg/injection, schedule: Q04DX003 (ip), vehicle: saline 95 % of control | dose: 150.0 mg/kg/injection, schedule: Q01DX001 (ip), vehicle: saline 96 % of control | dose: 150.0 mg/kg/injection, schedule: Q01DX009 (ip), vehicle: saline 93 % of control | dose: 150.0 mg/kg/injection, schedule: Q04DX003 (ip), vehicle: saline 98 % of control | dose: 300.0 mg/kg/injection, schedule: Q01DX001 (ip), vehicle: saline 97 % of control | dose: 300.0 mg/kg/injection, schedule: Q01DX009 (ip), vehicle: saline 100 % of control | dose: 300.0 mg/kg/injection, schedule: Q04DX003 (ip), vehicle: saline 94 % of control

NOCc1cccc2cccnc12
inactive: [12] 100 % of control | [13] 100 % of control | [24] 97 % of control | [1] 89 % of control | [2] 94 % of control | [3] 96 % of control

COc1cc(OC)c(NC(=O)C2CC2)cc1Cl
inactive: [4] 110 % of control | [5] 104 % of control | [6] 110 % of control
